Some test systems named below: ACHN renal; CCRF-CEM leukemia; COLO 205 colon; EKVX NSCLC; HOP-62 NSCLC; HS 578T breast; IGROV1 ovarian; KM12 colon; MCF7 breast; OVCAR-4 ovarian; OVCAR-5 ovarian; SF-539 CNS; SNB-75 CNS; T-47D breast; NCI-H522 lung.
Common to all, as to assay: NCI anticancer screen, dose series, 48 h

Structures are written as SMILES.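 Growth conditions: 96-well plates. Treatment: test compound, 48 hours, 5 concentrations. Analysis: linear interpolation between bracketing concentrations; unreached endpoints set to highest concentration. TGI: total growth inhibition.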 Where only a bound is given, the exact number is not on record here.

Turning to `Nc1nc(NCCOCP(=O)(O)O)c(N)c(=O)[nH]1`, the TGI in the assay with ACHN renal, in the assay on CCRF-CEM leukemia, with COLO 205 colon, in the assay on EKVX NSCLC, in the assay with HOP-62 NSCLC and in the assay with HS 578T breast was over 100 µM throughout. For the same compound, the TGI in the assay on IGROV1 ovarian, with KM12 colon, in the assay on MCF7 breast, in the assay with OVCAR-4 ovarian, in the assay with OVCAR-5 ovarian and in the assay on SF-539 CNS was over 100 µM throughout. For the same compound, the TGI in the assay on SNB-75 CNS and with T-47D breast was over 100 µM each time.

On to `COC(=O)CNCC1OC2OC(C)(C)OC2C1N=[N+]=[N-]` (stereo unspecified), for which the TGI in the assay on ACHN renal, with CCRF-CEM leukemia, in the assay with EKVX NSCLC, in the assay with HOP-62 NSCLC, in the assay on HS 578T breast and in the assay with IGROV1 ovarian was over 100 µM throughout. Besides, the TGI in the assay with KM12 colon, with MCF7 breast, in the assay with OVCAR-4 ovarian, in the assay on OVCAR-5 ovarian, with SF-539 CNS and in the assay with SNB-75 CNS was over 100 µM each time. Besides, the TGI in the assay on T-47D breast was over 100 µM.

With `CSc1nc(C)c(CCCl)c(Cl)n1`, the TGI in the assay with ACHN renal, with CCRF-CEM leukemia, in the assay on COLO 205 colon, in the assay on EKVX NSCLC, in the assay with HOP-62 NSCLC and in the assay with HS 578T breast was over 100 µM each time. For the same compound, the TGI was over 100 µM in the assay on IGROV1 ovarian; 49.9 µM with NCI-H522 lung; over 100 µM in the assay on OVCAR-4 ovarian; over 100 µM in the assay with SF-539 CNS; over 100 µM with SNB-75 CNS; over 100 µM with T-47D breast.

Take `CCOC(=O)c1c(NC(=O)c2ccc(Br)cc2)sc2c1CCCC2`: the TGI in the assay with ACHN renal, with CCRF-CEM leukemia, with COLO 205 colon, with EKVX NSCLC, in the assay on HOP-62 NSCLC and with HS 578T breast was over 100 µM throughout. Further, the TGI with IGROV1 ovarian, in the assay with KM12 colon, in the assay on MCF7 breast, in the assay on OVCAR-5 ovarian, with SF-539 CNS and in the assay on T-47D breast was over 100 µM in each case.

Regarding `Cc1cc(C#N)c(Nc2ccccc2[N+](=O)[O-])s1`, the TGI was over 100 µM in the assay on ACHN renal; over 100 µM with CCRF-CEM leukemia; over 100 µM in the assay on COLO 205 colon; 97.2 µM in the assay on EKVX NSCLC; 90.9 µM in the assay with HOP-62 NSCLC; over 100 µM with IGROV1 ovarian. Further, the TGI in the assay on KM12 colon is over 100 µM; with MCF7 breast, over 100 µM; in the assay on NCI-H522 lung it was 57.6 µM; in the assay on OVCAR-4 ovarian it was over 100 µM; with OVCAR-5 ovarian it was 62.9 µM; in the assay on SF-539 CNS it was over 100 µM. Also, the TGI with SNB-75 CNS and in the assay on T-47D breast was over 100 µM throughout.

For the compound `O=C1C(NS(=O)(=O)c2ccccc2)=C(N(Cc2ccccc2)Cc2ccccc2)C(=O)c2ccccc21`, the TGI was over 100 µM in the assay on ACHN renal; 77.4 µM with CCRF-CEM leukemia; over 100 µM in the assay on COLO 205 colon; over 100 µM in the assay with EKVX NSCLC; over 100 µM in the assay with HOP-62 NSCLC; over 100 µM with HS 578T breast. Moreover, the TGI was over 100 µM in the assay with IGROV1 ovarian; over 100 µM with KM12 colon; over 100 µM with MCF7 breast; 59 µM in the assay with OVCAR-4 ovarian; over 100 µM in the assay on OVCAR-5 ovarian; over 100 µM in the assay with SF-539 CNS. Besides, the TGI with SNB-75 CNS and in the assay with T-47D breast was over 100 µM throughout.

On to `Nc1cc(N)c(N=Nc2cccc3c(S(=O)(=O)O)cccc23)cc1N=Nc1cc([N+](=O)[O-])ccc1O`, for which the TGI in the assay on ACHN renal was 78.1 µM; with COLO 205 colon, over 100 µM; in the assay on EKVX NSCLC, over 100 µM; with HOP-62 NSCLC it was over 100 µM; in the assay with HS 578T breast it was over 100 µM; in the assay with IGROV1 ovarian, over 100 µM. Also, the TGI in the assay on KM12 colon was over 100 µM; in the assay on MCF7 breast it was over 100 µM; in the assay on NCI-H522 lung, 61.4 µM; with OVCAR-4 ovarian, over 100 µM; in the assay with OVCAR-5 ovarian, 93.9 µM; in the assay with SF-539 CNS, over 100 µM. The TGI with SNB-75 CNS and in the assay with T-47D breast was over 100 µM in each case.

On to `C#CC(O)Cc1ccc(OC)c2occc12` (stereo unspecified), for which the TGI with ACHN renal, in the assay on COLO 205 colon, in the assay on EKVX NSCLC, with HOP-62 NSCLC, in the assay on HS 578T breast and in the assay with IGROV1 ovarian was over 100 µM throughout. Also, the TGI with KM12 colon, in the assay on MCF7 breast, in the assay with NCI-H522 lung, in the assay with OVCAR-4 ovarian, with OVCAR-5 ovarian and in the assay on SF-539 CNS was over 100 µM each time. For the same compound, the TGI with SNB-75 CNS and in the assay with T-47D breast was over 100 µM in each case.

`COC(=O)C1(C)OC(C)=NC1(C(=O)OC)C(=O)OC` (stereo unspecified): the TGI in the assay on ACHN renal is over 100 µM; with CCRF-CEM leukemia, over 44 µM; in the assay with COLO 205 colon, over 100 µM; in the assay with EKVX NSCLC, over 100 µM; in the assay on HOP-62 NSCLC, over 100 µM; in the assay on HS 578T breast, over 100 µM. For the same compound, the TGI with IGROV1 ovarian, in the assay with KM12 colon, in the assay on MCF7 breast, in the assay on OVCAR-4 ovarian, in the assay on OVCAR-5 ovarian and with SF-539 CNS was over 100 µM throughout. For the same compound, the TGI in the assay on SNB-75 CNS and in the assay on T-47D breast was over 100 µM in each case.

Consider `O=[N+]([O-])c1ccc2[nH]c(O)c(N=NC(=S)Nc3ccccc3)c2c1`, for which the TGI was 19.5 µM in the assay on ACHN renal; 20 µM with CCRF-CEM leukemia; over 100 µM with COLO 205 colon; 9.2 µM with EKVX NSCLC; 21.8 µM in the assay on HOP-62 NSCLC; over 100 µM with HS 578T breast. Also, the TGI stood at 19.6 µM with IGROV1 ovarian; 27 µM in the assay on KM12 colon; 24.6 µM with MCF7 breast; 29.2 µM with OVCAR-4 ovarian; 24.7 µM in the assay with OVCAR-5 ovarian; 27.6 µM with SF-539 CNS. Also, the values for the TGI in the assay with SNB-75 CNS and in the assay with T-47D breast were 21.5 µM and 38.9 µM, respectively.

With `O=C1c2c(ccc3c2CCCC3)CC1Cc1ccc2c(c1)CCCC2` (stereo unspecified), the TGI is over 100 µM in the assay with ACHN renal; 59.7 µM with CCRF-CEM leukemia; over 100 µM in the assay with COLO 205 colon; over 100 µM with EKVX NSCLC; over 100 µM in the assay on HOP-62 NSCLC; over 100 µM with HS 578T breast. The TGI with IGROV1 ovarian, in the assay with KM12 colon, with MCF7 breast, with OVCAR-4 ovarian, in the assay with OVCAR-5 ovarian and in the assay with SF-539 CNS was over 100 µM throughout. Also, the TGI in the assay with SNB-75 CNS is over 100 µM; in the assay on T-47D breast it was 9.84 µM.

With `O=C(O)CCc1nc2cc3ccccc3cc2[nH]c1=O`, the TGI in the assay on ACHN renal, in the assay on CCRF-CEM leukemia, in the assay on COLO 205 colon, in the assay with EKVX NSCLC, in the assay on HOP-62 NSCLC and in the assay with IGROV1 ovarian was over 100 µM throughout. Besides, the TGI with KM12 colon, in the assay on MCF7 breast, with NCI-H522 lung, in the assay with OVCAR-4 ovarian, with OVCAR-5 ovarian and with SF-539 CNS was over 100 µM in each case. Further, the TGI with SNB-75 CNS and in the assay with T-47D breast was over 100 µM each time.

`CC1=C(C)C(=O)C(C2=C(C3=CC(=O)C(C)=C(C)C3=O)C(=O)c3ccccc3C2=O)=CC1=O`: the TGI in the assay with ACHN renal came out at 6.71 µM; in the assay on CCRF-CEM leukemia, 7.22 µM; in the assay with COLO 205 colon, 3.93 µM; in the assay on EKVX NSCLC, 5.81 µM; in the assay on HOP-62 NSCLC it was 31.8 µM; in the assay with HS 578T breast, 43.5 µM. The TGI was 7.14 µM with IGROV1 ovarian; 11.1 µM with KM12 colon; 5.49 µM in the assay with NCI-H522 lung; 4 µM with OVCAR-4 ovarian; 32.2 µM with OVCAR-5 ovarian; 10.5 µM in the assay on SF-539 CNS. Besides, the figures for the TGI with SNB-75 CNS and in the assay with T-47D breast were 19.6 µM and 12.4 µM, respectively.

On to `CCSC12CC3c4cccc5c4C(CN5C(=O)c4ccccc4)CC3(O1)N(C)C2=O` (stereo unspecified), for which the TGI in the assay with ACHN renal is over 100 µM; in the assay on CCRF-CEM leukemia, over 100 µM; in the assay with COLO 205 colon, 75 µM; in the assay with EKVX NSCLC it was 83.4 µM; with HS 578T breast, over 100 µM; with IGROV1 ovarian, over 100 µM. In addition, the TGI in the assay on KM12 colon is over 100 µM; in the assay on NCI-H522 lung, 64.7 µM; in the assay on OVCAR-4 ovarian it was over 100 µM; in the assay on OVCAR-5 ovarian, over 100 µM; in the assay with SF-539 CNS, over 100 µM; in the assay on SNB-75 CNS, over 100 µM. Also, the TGI in the assay with T-47D breast is over 100 µM.

Regarding `C=CCC1C2CCC(O[Si](C(C)C)(C(C)C)C(C)C)(C(C(=O)OC)C2)C1O` (stereo unspecified), the TGI with ACHN renal, in the assay with CCRF-CEM leukemia, in the assay on COLO 205 colon, in the assay on EKVX NSCLC, in the assay on HOP-62 NSCLC and in the assay with HS 578T breast was over 100 µM each time. The TGI with IGROV1 ovarian, with KM12 colon, with MCF7 breast, in the assay with OVCAR-4 ovarian, with OVCAR-5 ovarian and in the assay with SF-539 CNS was over 100 µM each time. Also, the TGI in the assay with SNB-75 CNS and in the assay on T-47D breast was over 100 µM in each case.

As for `c1cc(C[S+]2CCCC2)oc1C[S+]1CCCC1`, the TGI with ACHN renal, in the assay on CCRF-CEM leukemia, in the assay with COLO 205 colon, in the assay with EKVX NSCLC, in the assay with HOP-62 NSCLC and in the assay with HS 578T breast was over 100 µM throughout. The TGI in the assay with IGROV1 ovarian, in the assay on NCI-H522 lung, with OVCAR-4 ovarian, in the assay on SF-539 CNS, in the assay on SNB-75 CNS and in the assay on T-47D breast was over 100 µM in each case.
